Reference: patent US9556217B2, “Amphiphilic compounds” (WISCONSIN ALUMNI RESEARCH FOUNDATION, priority 2012, dated 2017)

Target: T1, Bacteriorhodopsin (bR) (Halobacterium salinarum, UniProt P02945)
T1 construct: Frozen aliquots of purple membranes containing bR at 184 μM were thawed at room temperature; endogenous in cells; host or cells: purple membranes (native)
T1 sequence (P02945 14-261 limits assumed): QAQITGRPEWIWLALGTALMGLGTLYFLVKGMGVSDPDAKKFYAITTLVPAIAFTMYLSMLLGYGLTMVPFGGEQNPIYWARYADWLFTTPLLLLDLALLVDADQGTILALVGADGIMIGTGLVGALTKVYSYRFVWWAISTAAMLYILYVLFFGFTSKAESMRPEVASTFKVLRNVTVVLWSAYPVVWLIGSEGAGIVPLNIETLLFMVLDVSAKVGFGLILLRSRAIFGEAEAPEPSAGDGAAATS
Assay: Bacteriorhodopsin stability (absorbance at 554 nm)
Details: 0.2 wt % OTG+1.6 wt % agent, RT; for Maintaining the native structure of bR compared with conventional detergents: absorbance at 554 nm over 20 days
Protocol: bR was extracted from the native purple membrane with 2.0 wt % octyl-β-D-thioglucoside (OTG) (see Bazzacco at al., Biomacromolecules 2009, 10, 3317-3326). Following ultracentrifugation to remove insoluble debris, the bR solution was diluted with amphiphile solutions to give 0.2 wt % OTG+1.6 wt % new agent or DDM. The absorbance of the solutions at 554 nm was measured periodically over 20 days. […] When the assay was conducted at a lower amphiphile concentration, 0.2 wt % OTG+0.8 wt % new agent or DDM, similar results were obtained (FIG. 3).
The procedure for the bR stability assay followed the protocol reported by Bazzacco and coworkers (Biomacromolecules 2009, 10, 3317-3326).
The procedure for the bR stability assay generally followed the reported protocol (Bazzacco et al., Biomacromolecules 2009, 10, 3317-3326). Frozen aliquots of purple membranes containing bR at 184 μM were thawed at room temperature and solubilized by using an octylthioglucoside (OTG) solution for 24 hr at 4° C. in a dark room. For this purpose, OTG (CMC=0.28 wt %) was used at 2.0 wt % in 10 mM sodium phosphate (pH 6.9). Membrane debris was then removed from the solubilized material via ultracentrifugation at 200,000 g at 4° C. for 20 min. The supernatant, including bR protein, was transferred into individual DDM, GLC, or GDN solutions, giving final concentration of OTG: new amphiphiles=0.2 wt %: 0.8 wt % (1:4) or 0.2 wt %:1.6 wt % (1:8). The stability of bR in each solution was monitored by measuring absorbance at 554 nm over 20 days.

## C[C@@H]1CC[C@@]2(OC1)O[C@H]1C[C@H]3[C@@H]4CC=C5C[C@@H](OCCC(CO[C@@H]6OC(CO)[C@@H](O[C@H]7OC(CO)[C@@H](O)C(O)C7O)C(O)C6O)CO[C@@H]6OC(CO)[C@@H](O[C@H]7OC(CO)[C@@H](O)C(O)C7O)C(O)C6O)CC[C@]5(C)[C@H]4CC[C@]3(C)[C@@H]1[C@@H]2C (stereo partly drawn) [GDN, glyco-diosgenin]
Absorbance at 554 nm
  Loss in bR protein integrity after 20 days: negligible loss in protein integrity
  Maintaining the native structure of bR compared with conventional detergents: more effective than conventional detergents OTG and DDM

## CO[C@@H]1CC[C@@]2(C)[C@H](CC[C@@H]3[C@@H]2CC[C@]2(C)[C@@H]([C@H](C)CCCOCC(C)(CO[C@@H]4OC(CO)C(O[C@@H]5OC(CO)[C@@H](O)[C@H](O)C5O)[C@@H](O)C4O)CO[C@@H]4OC(CO)[C@@H](O[C@H]5OC(CO)[C@@H](O)[C@H](O)C5O)[C@H](O)C4O)CC[C@@H]32)C1 (stereo partly drawn) [GLC-2]
  Maintaining the native structure of bR compared with conventional detergents: more effective than conventional detergents OTG and DDM
